Test results as given in PubChem BioAssay AID1963426 (Molecular Pharmacology Branch, DTP, NCI, 2024).

Tested on: 186277-243-T-J2-PDC complex spheroid growth, % test/control
Experiment: Anticancer human tumor 186277-243-T-J2-PDC patient-derived colon adenocarcinoma cell line growth inhibition [Asc]
Conditions: for IC50: curve of first compound; for viability, T/C: stronger effect = lower value
Outline: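 Stromal components (HUVEC and hMSC) are co-assembled with the cancer cells into multicellular spheroids. Drugs are then added singly or paired, at concentrations falling by half-log increments from a clinically achievable maximum, capped at 10 microM without known Cmax.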

[1] = second compound 0.03 µM, first compound 0.0316 µM
[2] = second compound 0.03 µM, first compound 0.1 µM
[3] = second compound 0.03 µM, first compound 0.316 µM
[4] = second compound 0.03 µM, first compound 1 µM
[5] = second compound 0.0949 µM, first compound 0.0316 µM
[6] = second compound 0.0949 µM, first compound 0.1 µM
[7] = second compound 0.0949 µM, first compound 0.316 µM
[8] = second compound 0.0949 µM, first compound 1 µM
[9] = second compound 0.3 µM, first compound 0.0316 µM
[10] = second compound 0.3 µM, first compound 0.1 µM
[11] = second compound 0.3 µM, first compound 0.316 µM
[12] = second compound 0.3 µM, first compound 1 µM
[13] = second compound 0.949 µM, first compound 0.0316 µM
[14] = second compound 0.949 µM, first compound 0.1 µM
[15] = second compound 0.949 µM, first compound 0.316 µM
[16] = second compound 0.949 µM, first compound 1 µM
[17] = second compound 3 µM, first compound 0.0316 µM
[18] = second compound 3 µM, first compound 0.1 µM
[19] = second compound 3 µM, first compound 0.316 µM
[20] = second compound 3 µM, first compound 1 µM
[21] = second compound 0.03 µM, first compound 0.00316 µM
[22] = second compound 0.03 µM, first compound 0.01 µM
[23] = second compound 0.0949 µM, first compound 0.00316 µM
[24] = second compound 0.0949 µM, first compound 0.01 µM
[25] = second compound 0.3 µM, first compound 0.00316 µM
[26] = second compound 0.3 µM, first compound 0.01 µM
[27] = second compound 0.949 µM, first compound 0.00316 µM
[28] = second compound 0.949 µM, first compound 0.01 µM
[29] = second compound 3 µM, first compound 0.00316 µM
[30] = second compound 3 µM, first compound 0.01 µM
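Also: spheroids exposed to agents for 7 days.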
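For viability, T/C in this document: 100% = DMSO vehicle control wells.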

SMILES | IC50 (second compound 0.03 µM) [nM] | IC50 (second compound 0.0949 µM) [nM] | IC50 (second compound 0.3 µM) [nM] | IC50 (second compound 0.949 µM) [nM] | IC50 (second compound 3 µM) [nM] | viability, T/C [1] [%] | viability, T/C [2] [%] | viability, T/C [3] [%] | viability, T/C [4] [%] | viability, T/C [5] [%] | viability, T/C [6] [%] | viability, T/C [7] [%] | viability, T/C [8] [%] | viability, T/C [9] [%] | viability, T/C [10] [%] | viability, T/C [11] [%] | viability, T/C [12] [%] | viability, T/C [13] [%] | viability, T/C [14] [%] | viability, T/C [15] [%] | other results
C=CC(=O)N1CCN(c2nc(=O)n(-c3c(C)ccnc3C(C)C)c3nc(-c4c(O)cccc4F)c(F)cc23)C(C)C1 (stereo not given) + CCN1C(C(=O)NC23CCC(C(=O)O)(CC2)CC3)C(c2cccc(Cl)c2F)C2(C(=O)Nc3cc(Cl)ccc32)C12CCCCC2 | > 10000 | > 10000 | > 10000 | 3740 | < 31.6 | 124 | 119 | 119 | 127 | 119 | 92.9 | 112 | 94.5 | 74.9 | 82.2 | 81.2 | 79.4 | 62.5 | 59.3 | 58.1 | viability, T/C (second compound 0.03 µM, first compound 3.16 µM): 122%; viability, T/C (second compound 0.03 µM, first compound 10 µM): 125%; viability, T/C (second compound 0.0949 µM, first compound 3.16 µM): 113%; viability, T/C (second compound 0.0949 µM, first compound 10 µM): 103%; viability, T/C (second compound 0.3 µM, first compound 3.16 µM): 74.7%; viability, T/C (second compound 0.3 µM, first compound 10 µM): 69.1%; viability, T/C [16]: 57.3%; viability, T/C (second compound 0.949 µM, first compound 3.16 µM): 51.4%; viability, T/C (second compound 0.949 µM, first compound 10 µM): 42%; viability, T/C [17]: 33.2%; viability, T/C [18]: 36%; viability, T/C [19]: 35.9%; viability, T/C [20]: 36.5%; viability, T/C (second compound 3 µM, first compound 3.16 µM): 41%; viability, T/C (second compound 3 µM, first compound 10 µM): 32.7%
CNC(C)C(=O)NC1CN(S(=O)(=O)c2cccc(S(=O)(=O)N3CCC4CCC(C(=O)NC(c5ccccc5)c5ccccc5)N4C(=O)C(NC(=O)C(C)NC)C3)c2)CCC2CCC(C(=O)NC(c3ccccc3)c3ccccc3)N2C1=O (stereo not given) + CCN1C(C(=O)NC23CCC(C(=O)O)(CC2)CC3)C(c2cccc(Cl)c2F)C2(C(=O)Nc3cc(Cl)ccc32)C12CCCCC2 | > 1000 | > 1000 | > 1000 | 415 | < 3.16 | 113 | 102 | 113 | 112 | 111 | 94.9 | 82.5 | 84.9 | 87 | 77.2 | 77.2 | 56.6 | 56.7 | 55.7 | 55.6 | viability, T/C [21]: 101%; viability, T/C [22]: 131%; viability, T/C [23]: 115%; viability, T/C [24]: 114%; viability, T/C [25]: 73.6%; viability, T/C [26]: 79.6%; viability, T/C [27]: 60.8%; viability, T/C [28]: 54.8%; viability, T/C [16]: 32.4%; viability, T/C [29]: 36.9%; viability, T/C [30]: 37.6%; viability, T/C [17]: 36.2%; viability, T/C [18]: 31.5%; viability, T/C [19]: 29.6%; viability, T/C [20]: 28.8%
COc1c(OCCCN2CCOCC2)ccc2c3n(c(=NC(=O)c4cnc(N)nc4)nc12)CCN3 + CCN1C(C(=O)NC23CCC(C(=O)O)(CC2)CC3)C(c2cccc(Cl)c2F)C2(C(=O)Nc3cc(Cl)ccc32)C12CCCCC2 | 25.8 | 18.9 | 12.9 | < 3.16 | < 3.16 | 46.7 | 18.1 | 9.99 | 6.65 | 38.8 | 9.15 | 4.16 | 2.21 | 21.4 | 2.26 | 1.06 | 0.54 | 9.96 | 0.92 | 0.3 | viability, T/C [21]: 101%; viability, T/C [22]: 75.2%; viability, T/C [23]: 67.3%; viability, T/C [24]: 64%; viability, T/C [25]: 58.1%; viability, T/C [26]: 58.4%; viability, T/C [27]: 49.5%; viability, T/C [28]: 40.1%; viability, T/C [16]: 0.28%; viability, T/C [29]: 30.3%; viability, T/C [30]: 24.8%; viability, T/C [17]: 5.08%; viability, T/C [18]: 0.52%; viability, T/C [19]: 0.33%; viability, T/C [20]: 0.31%
